# Active and inactive are the calls of the source. Cut-off read from the data, not from the text of the source, for most assays here: actives have a measured EC50 and inactives only a lower limit.
# Assays:
# [1] = target: Luciferin 4-monooxygenase (Photinus pyralis, UniProt P08659); assay: firefly luciferase enzyme inhibitors, dose response, biochemical, luminescence (AID 1891)
# [2] = Luminescence Cell-Based Dose Confirmation HTS to Identify Inhibitors of Platelet Dense Granule Release. [Related pubchem assays: 1663 (Primary HTS), 1678 (Summary of Project)]; format: functional
# [3] = inhibitors of firefly luciferase expression or activity, dose response, H4 neuroglioma cells, luminescence (AID 1990); format: functional, cell-based
# [4] = Luminescence Cell-Based Dose Response HTS to Identify Inhibitors of 5'UTR Stem-Loop Driven Prion Protein mRNA Translation in H4 Neuroglioblastoma Cells. [Related pubchem assays: 1827 (Project Summary), 1813 (Primary HTS)]; format: functional
# [5] = inhibitors of SNCA 5'UTR-driven reporter translation, confirmation, H4 neuroglioma cells, luminescence (AID 1988); format: functional, cell-based
# [6] = target: T1, RNA-binding protein pos-1 (Caenorhabditis elegans, UniProt G5EF15); assay: inhibitors of POS-1/mex-3 RNA binding, dose response, biochemical, fluorescence polarization (AID 1964);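 note: purified POS-1 fused to maltose binding protein made in E. coli; potency of compounds blocking POS-1 binding to fluorescent RNA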
# T1 sequence (G5EF15 whole entry): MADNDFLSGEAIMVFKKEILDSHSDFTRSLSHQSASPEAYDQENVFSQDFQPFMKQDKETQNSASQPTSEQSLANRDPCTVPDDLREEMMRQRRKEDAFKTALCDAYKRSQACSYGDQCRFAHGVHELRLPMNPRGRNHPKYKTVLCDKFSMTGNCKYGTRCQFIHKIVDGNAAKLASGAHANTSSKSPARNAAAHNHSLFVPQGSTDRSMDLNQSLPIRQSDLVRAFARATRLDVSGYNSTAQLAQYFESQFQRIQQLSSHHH
# [7] = target: T2, Corticotropin-releasing factor receptor 2/Corticotropin-releasing factor-binding protein (Homo sapiens, UniProt P24387+Q13324); assay: activators of CRF receptor 2 with binding protein – uHTS hits, confirmation (AID 602473); format: functional; settings: read-out: EC50_Mean
# T2 sequence (Q13324 whole entry): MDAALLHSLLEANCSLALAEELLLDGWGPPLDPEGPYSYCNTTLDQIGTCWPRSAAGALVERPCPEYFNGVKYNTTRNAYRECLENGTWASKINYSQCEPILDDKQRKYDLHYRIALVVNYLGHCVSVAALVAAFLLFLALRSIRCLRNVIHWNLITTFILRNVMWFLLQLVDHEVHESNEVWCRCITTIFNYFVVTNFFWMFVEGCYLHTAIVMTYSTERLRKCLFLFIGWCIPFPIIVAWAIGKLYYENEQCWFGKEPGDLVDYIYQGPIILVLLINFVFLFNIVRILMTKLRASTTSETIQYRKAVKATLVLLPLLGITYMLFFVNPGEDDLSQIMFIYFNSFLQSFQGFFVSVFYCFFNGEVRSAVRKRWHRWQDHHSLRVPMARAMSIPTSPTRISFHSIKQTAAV
# T2 sequence (P24387 whole entry): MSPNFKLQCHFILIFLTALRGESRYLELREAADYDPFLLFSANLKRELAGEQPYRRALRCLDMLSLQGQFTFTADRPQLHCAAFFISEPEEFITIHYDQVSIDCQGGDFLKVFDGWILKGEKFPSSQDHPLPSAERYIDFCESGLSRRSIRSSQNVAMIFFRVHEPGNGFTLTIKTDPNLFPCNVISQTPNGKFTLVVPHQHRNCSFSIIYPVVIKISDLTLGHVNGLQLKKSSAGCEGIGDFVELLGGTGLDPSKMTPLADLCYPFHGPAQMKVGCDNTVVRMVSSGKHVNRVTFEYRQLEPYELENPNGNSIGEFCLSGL
# [8] = growth suppression of PTEN-null colon cells, dose response, cell-based, HCT116 PTEN knockout (AID 1047); format: functional;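 note: HCT116 colon tumor cells with PTEN knocked out; cells exposed to compound for 60 hours before readout; potency for loss of cell viability measured by luminescence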
# [9] = growth suppression of beta-catenin-knockout colon cells, dose response, cell-based, HCT116, human colon tumor (AID 1045); format: functional;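 note: HCT116 colon tumor cells with beta catenin knocked out; cells exposed to compound for 60 hours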
# [10] = target: T3, Polyadenylate-binding protein 1 (Homo sapiens, UniProt P11940); assay: PABP1 MLLE–PAM2 interaction inhibitors, dose response, miRNA deadenylation inhibitor project, biochemical, fluorescence polarization, Cy5-PAM2 peptide, secondary (AID 602260); format: functional; settings: read-out: IC50_Mean
# [11] = target: T3, Polyadenylate-binding protein 1; assay: PABP1 MLLE–PAM2 binding inhibitor potency, dose response, biochemical, fluorescence polarization, FITC-PAM2 peptide (AID 602259); format: functional; settings: read-out: IC50_Mean
# [12] = Luminescence Cell-Based Dose Retest to Confirm Inhibitors of Cancer Stem Cells. [Related pubchem assays (depositor defined):AID2717, AID2721]; format: functional; settings: Homo sapiens
# [13] = HEp-2 cell cytotoxicity, dose response, cytotoxicity control for RSV inhibitor project, HTS (AID 2410); format: functional; settings: human respiratory syncytial virus
# 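Throughout, for AC50: cells exposed to compound for roughly 70 hours or longer before luminescence read.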
# Luciferin 4-monooxygenase, sequence (P08659 whole entry): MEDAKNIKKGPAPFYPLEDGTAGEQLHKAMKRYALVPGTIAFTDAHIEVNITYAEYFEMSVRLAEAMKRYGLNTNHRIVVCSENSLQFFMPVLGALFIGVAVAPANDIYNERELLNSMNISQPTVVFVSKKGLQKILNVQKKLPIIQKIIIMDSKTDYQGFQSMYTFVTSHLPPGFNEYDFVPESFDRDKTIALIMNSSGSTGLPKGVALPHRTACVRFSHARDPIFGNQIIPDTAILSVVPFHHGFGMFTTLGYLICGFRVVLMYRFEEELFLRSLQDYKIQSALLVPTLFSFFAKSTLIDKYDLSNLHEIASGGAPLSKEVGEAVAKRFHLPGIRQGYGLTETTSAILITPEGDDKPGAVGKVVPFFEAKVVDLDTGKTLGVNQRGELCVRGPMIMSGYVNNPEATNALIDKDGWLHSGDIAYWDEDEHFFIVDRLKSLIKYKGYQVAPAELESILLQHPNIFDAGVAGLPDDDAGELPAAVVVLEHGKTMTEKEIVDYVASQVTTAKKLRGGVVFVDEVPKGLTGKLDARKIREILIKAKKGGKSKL
# T3 sequence (P11940 whole entry): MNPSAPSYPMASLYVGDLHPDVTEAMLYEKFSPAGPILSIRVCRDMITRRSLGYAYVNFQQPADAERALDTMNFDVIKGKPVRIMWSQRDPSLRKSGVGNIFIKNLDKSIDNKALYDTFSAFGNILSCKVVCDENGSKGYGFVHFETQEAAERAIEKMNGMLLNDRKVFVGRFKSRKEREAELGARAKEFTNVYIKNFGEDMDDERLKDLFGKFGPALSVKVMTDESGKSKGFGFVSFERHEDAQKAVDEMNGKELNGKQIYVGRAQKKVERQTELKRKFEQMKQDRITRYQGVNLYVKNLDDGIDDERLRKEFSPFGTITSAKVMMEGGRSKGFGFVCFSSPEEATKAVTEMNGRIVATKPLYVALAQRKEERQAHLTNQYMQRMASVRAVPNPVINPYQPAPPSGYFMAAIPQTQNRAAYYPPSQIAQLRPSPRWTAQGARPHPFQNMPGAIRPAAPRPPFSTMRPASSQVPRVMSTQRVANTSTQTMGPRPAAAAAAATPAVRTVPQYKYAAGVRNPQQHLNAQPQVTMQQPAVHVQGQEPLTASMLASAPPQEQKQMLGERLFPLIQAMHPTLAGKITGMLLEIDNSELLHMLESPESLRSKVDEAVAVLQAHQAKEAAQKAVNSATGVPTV
compound,measurement,setting,value
O=C(CCNC(=O)C1CCN(S(=O)(=O)c2ccc(F)cc2)CC1)NCc1ccc(Cl)cc1,EC50,[1],> 112 µM (not active)
same,EC50,[2],> 112 µM (not active)
COc1ccccc1N1CCN(S(=O)(=O)CCNC(=O)c2ccc(Br)o2)CC1,EC50,[3],> 120 µM (not active)
same,EC50,[4],> 120 µM (not active)
same,EC50,[5],> 120 µM (not active)
COc1cc(S(=O)(=O)Nc2ccc(C)cc2)ccc1N/C=C1\C(=O)N(C)C(=O)C(C#N)=C1C,EC50,[6],2.83 µM (active)
same,EC50,[7],> 53 µM (inactive)
CCOc1ccc(NC(=O)C(=O)NCCN2CCN(C(=O)c3ccc(C)cc3)CC2)cc1,EC50,[3],14.7 µM (active)
same,EC50,[4],64.8 µM (active)
same,EC50,[5],63.7 µM (active)
COc1cc2[nH]c(=O)n(CCCCCC(=O)N3CC=C(c4ccccc4)CC3)c(=O)c2cc1OC,EC50,[8],21.9 µM (active)
same,EC50,[9],27.9 µM (active)
COc1cc2c(cc1OC)C(c1ccccc1O)N(C1CC(=O)N(c3ccccc3)C1=O)CC2 (stereo not given),IC50,[10],> 66 µM (inactive)
same,IC50,[11],> 66 µM (inactive)
O=C(Nc1cc(S(=O)(=O)Nc2ccc(Cl)cc2)ccc1N1CCCCC1)c1ccc(F)cc1Cl,AC50,[12],2.07 µM (active)
same,IC50,[10],> 66 µM (inactive)
same,IC50,[11],> 66 µM (inactive)
C=CCSC1=C(C#N)C(c2ccccc2OCC)C(C#N)C(=O)N1 (stereo not given),IC50,[10],> 66 µM (inactive)
same,IC50,[11],> 66 µM (inactive)
CCc1cc2c(=O)c(-c3cnn(-c4ccccc4)c3)c(C)oc2cc1OCC(=O)Nc1ccc(F)c(F)c1,EC50,[8],4.93 µM (active)
same,EC50,[9],4.88 µM (active)
Cc1cccc(OCC(O)CN2CCN(S(=O)(=O)c3ccc(C)cc3C)CC2)c1 (stereo not given),EC50,[3],> 120 µM (not active)
same,EC50,[4],> 120 µM (not active)
same,EC50,[5],15.9 µM (active)
COCCN(Cc1cc2cc3c(cc2n2nnnc12)OCO3)C(=O)c1ccccc1F,EC50,[3],> 120 µM (not active)
same,EC50,[4],> 120 µM (not active)
same,EC50,[5],> 120 µM (not active)
Cc1c(NC(=S)NC(=O)CSc2ccc(Cl)cc2)cccc1C(=O)O,IC50,[10],> 66 µM (inactive)
same,IC50,[11],> 66 µM (inactive)
Oc1nc(SCCOc2cccc3ccccc23)nc2ccccc12,EC50,[3],15.4 µM (active)
same,EC50,[4],> 120 µM (not active)
same,EC50,[5],> 120 µM (not active)
C=CCN(C(=O)CCC(=O)O)C1CC(=O)N(c2ccc(OC)cc2)C1=O (stereo not given),EC50,[1],> 112 µM (not active)
same,EC50,[2],> 112 µM (not active)
O=S(=O)(NCCc1cn2ccccc2n1)c1ccc2c(c1)CCCC2,EC50,[1],> 112 µM (not active)
same,EC50,[2],> 112 µM (not active)
Cc1c(C(=O)C(=O)N2c3ccc(F)cc3CCC2C)c2ccccc2n1C (stereo not given),EC50,[3],10.5 µM (active)
same,EC50,[4],12.2 µM (active)
same,EC50,[5],5.47 µM (active)
CCOc1ccccc1C(=O)Nc1cnc(O)nc1O,CC50,[13],> 50 µM (active)
same,EC50,[4],> 120 µM (not active)
same,EC50,[5],> 120 µM (not active)
same,EC50,[1],> 112 µM (not active)
same,EC50,[2],0.125 µM (active)
Cc1cc(/C=C2\C(=O)NC(=O)N(c3ccc(Br)cc3)C2=O)c(C)n1C,EC50,[6],59.7 µM (active)

# Source: ChEMBL document CHEMBL1201862, “PubChem BioAssay data set” (2004)
